Test system: mouse bone marrow polychromatic erythrocytes
Details: mice, single oral gavage

SMILES: O=P1(N(CCCl)CCCl)NCCCO1 (centres unmarked) [Cyclophosphamide monohydrate]
- bone marrow cytotoxicity (erythropoiesis): some cytotoxicity
- incidence of micronucleated polychromatic erythrocytes (48 hour time-point, p≦0.05): significant increase
